From patent US20130012473A1, “COMBINED USE OF PHOSPHOLIPID AND SULFATE GROUPS-CARRYING POLYSACCHARIDES FOR INHIBITING METASTATIC SPREAD” (KTB TUMORFORSCHUNGSGESELLSCHAFT MBH, priority 2010, published 2013)

Experiments:
[1] = test system: B16.F10 ELN melanoma cells; test: Experimental lung metastasis model, luciferase assay of lung homogenates; format: in vivo, mouse
Experimental: Generation of luciferase expressing B16.F10 melanoma cells: For sensitive detection of metastases in vivo in lung and other murine tissues, stably luciferase-transduced B16.F10 ELN melanoma cells were established as recently described (Bornmann, C. et al., Cancer Chemother. Pharmacol. 61:395-405 (2008)).
Animal experiments: Lung metastases were induced by injecting 3×10^5 cells in 100 μl PBS into the tail vein of male C57BI/6N mice (Charles River Laboratories, Sulzfeld, Germany) (Ludwig, R. J. et al., Cancer Res. 64:2743-2750 (2004)). […] In a further experiment, animals were pre-treated 30 min before cell injection with 50 IU (Ludwig, R. J. et al., Cancer Res. 64:2743-2750 (2004)) unfractionated heparin (Ratiopharm GmbH, Ulm, Germany), followed by injection of either long-term 450 μM LysoPC treated or DMEM control medium cultured B16.F10 ELN cells. Experiments were terminated on day 14 (see establishment of the model—FIG. 9). Tissues were removed and stored as snap frozen samples. Metastatic lesions were quantified by homogenizing the tissues in luciferase lysis buffer and measuring in a luciferase assay (Promega E1501) as described (Jantscheff, P. et al., Establishment of human orthotopic LNCaP prostate cancer xenograft metastases model: Effect of Gemcitabine and GemLip. Clin. Exp. Metastasis: in press (2009); Jantscheff, P. et al., Prostate 69:1151-1163 (2009)).
Example 4: Inhibition of in vivo metastasis of B16.F10 ELN cells pretreated with LysoPC. […] For a sensitive quantitative analysis of metastatic spread in the lung, luciferase-transduced B16.F10 ELN cells were used. […]
To establish the mice metastasis model with luciferase-transduced B16.F10 melanoma cells, metastatic lesions in the lung and other tissues (those strongly supplied with blood, spleen, liver, kidney) were investigated at different time points (6 h, 24 h, 7 d, 14 d, and 19 d). Sensitivity of in vitro detection of metastatic lesions was determined as recently described (Jantscheff, P. et al., Prostate 69:1151-1163 (2009)) and limited corresponding to the detection of about 1000 cells in 1 ml tissue lysate (data not shown). Three to four animals were analyzed at each time point and metastatic lesions in lung and other tissues were determined by in vitro luciferase assay in tissue homogenates (see Material and Methods). As shown in A) significant metastasis could be detected first at day 7 and reached a plateau at day 14 in the lung. […] Therefore, in future experiments the animals were analyzed at day 14 and the experiments were limited to this time frame. Using the same scale, no metastatic lesions were detected in the other organs. […]

[2] = test system: P-selectin mediated interaction of B16.F10 cells with activated platelets; test: Binding of calcein-labeled TRAP-14 activated platelets to B16.F10 cells; format: cell-based, mouse; details: cells treated with 450 μM LysoPC for 48 h
Experimental: Platelet isolation: Platelets from blood of healthy volunteers were separated, routinely tested for viability, and activated by TRAP-14 (Bachem GmbH, Weil am Rhein, Germany) as recently described (Fritzsche, J. et al., Thromb. Haemost. 100:1166-1175 (2008)). Isolated platelets were stored at 37° C. in a water bath.
B) Binding of calcein-labeled TRAP-14 activated platelets to B16.F10 cells treated with 450 μM LysoPC for 48 h was analyzed by fluorescence microscopy. […] Data represent means±SD from three independent experiments. P, resting platelets; aP, activated platelets; LysoPC, LysoPC treated B16.F10 cells; Ab, Ig-matched control antibody.

B16.F10 cells = test: Fatty acid composition of cell lysates by GC analysis; format: cell-based, mouse
Experimental: Determination of fatty acid composition in cells and culture medium: Lipid extraction was performed according to the modified method of Bligh and Dyer (Bligh, E. G. and Dyer, W. J., Can. J. Biochem. Physiol. 37:911-917 (1959). For derivatization, the dried lipid extracts were subjected to methanol and TMSH and heated up to 100° C. for 10 min (Techne Dri Block DB-3D Techne, Stone, UK). Gas chromatography analysis was performed by an HP 5890 Series II Plus equipped with autosampler GC/SFC injector and flame ionisation detector (FID) with helium as carrier gas at 1 ml/min. Oven temperature program started with 150° C. for 3 min, up to 220° C. with a rate of 5° C./min, 220° C. for 3.5 min, split injection (split flow 100 ml/min, split ratio 1:100), 5 μl of injection volume, injector temperature 260° C. and FID at 280° C. on an Agilent DB-23 column (30 m, 0.25 mm ID, 0.25 μm). Integration of peak areas was performed with the HP software HP GC ChemStation (Rev.A.06.03[509]) running the GC system. Identification of peaks was accomplished by comparison to a fatty acid standard mixture.
Example 3: Cell membrane alterations induced by LysoPC treatment. In order to analyze membrane alterations caused by exogenous LysoPC the kinetics of changed fatty acid profiles of B16.F10 cells were evaluated by GC analysis. […] Between 48 h and 72 h, a plateau was apparently reached (C17:0: ˜55%). […]

For `CCCCCCCCCCCCCCCCC(=O)OC[C@@H](O)COP(=O)([O-])OCC[N+](C)(C)C` [LysoPC], the “metastatic lesions in the lung, mean percentage relative to untreated controls (100%)” value ([1]; B16.F10 ELN cells treated ex vivo six times with 450 μM LysoPC (long-term), injected i.v., lung luciferase assay day 14) was 51.7%, the “lung luciferase activity compared to control” value ([1]; cells treated twice with 300 μM LysoPC (short-term), day 14) was “slightly but insignificantly enhanced luciferase activity” and the “macroscopically visible metastatic foci on lung surface” value ([1]; long-term 450 μM LysoPC group, day 14) was “clearly smaller numbers of metastatic foci”. For the same compound, the “macroscopically visible metastatic foci on lung surface” value ([1]; short-term 300 μM LysoPC group vs control, day 14) was “no differences were seen between the control and the short-term group”, the “interaction of B16.F10 cells with activated platelets” value [2] was “significantly (p<0.001) reduced P-selectin mediated interaction with activated platelets to the level of resting cells” and the “reduction of fatty acid ratio after replacing LysoPC medium” value (B16.F10 cells; 48 h after incubation in LysoPC-free DMEM medium) was 10-15%. For the same compound, the “membrane composition on repeated feeding” value (B16.F10 cells; repeated feeding (up to six times) every 48 h) was “did not further change the membrane composition”.
